Read-outs that look alike come from different tables or passages of the source.
Target: T1, RANTES/MIP-1α chemokine receptor (CCR1) in THP-1 cell membranes (Homo sapiens, UniProt P32246)
T1 construct: Membranes were prepared from THP-1 cells (ATCC #TIB202); host or cells: THP-1 cells (membrane preparation)
T1 sequence (P32246 1-355): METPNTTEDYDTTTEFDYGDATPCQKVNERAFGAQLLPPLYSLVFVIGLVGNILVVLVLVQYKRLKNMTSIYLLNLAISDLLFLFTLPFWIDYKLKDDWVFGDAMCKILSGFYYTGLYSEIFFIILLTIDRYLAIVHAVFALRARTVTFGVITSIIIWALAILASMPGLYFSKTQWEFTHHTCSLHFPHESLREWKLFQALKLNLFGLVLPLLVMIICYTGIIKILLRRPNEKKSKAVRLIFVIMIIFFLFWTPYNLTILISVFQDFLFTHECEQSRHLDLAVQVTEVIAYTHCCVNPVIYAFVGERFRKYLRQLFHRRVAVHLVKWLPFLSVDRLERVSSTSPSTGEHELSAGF
Assay: Receptor binding assay: 125I-RANTES or 125I-MIP-1α binding to THP-1 cell membranes
Experimental: Membranes were prepared from THP-1 cells (ATCC #TIB202). Cells were harvested by centrifugation, washed twice with PBS (phosphate-buffered saline), and the cell pellets were frozen at −70 to −85° C. The frozen pellet was thawed in ice-cold lysis buffer consisting of 5 mM HEPES (N-2-hydroxyethylpiperazine-N′-2-ethane-sulfonic acid) pH 7.5, 2 mM EDTA (ethylenediaminetetraacetic acid), 5 μg/ml each aprotinin, leupeptin, and chymostatin (protease inhibitors), and 100 μg/ml PMSF (phenyl methane sulfonyl fluoride—also a protease inhibitor), at a concentration of 1 to 5×10^7 cells/ml. This procedure results in cell lysis. The suspension was mixed well to resuspend all of the frozen cell pellet. Nuclei and cell debris were removed by centrifugation of 400×g for 10 minutes at 4° C. The supernatant was transferred to a fresh tube and the membrane fragments were collected by centrifugation at 25,000×g for 30 minutes at 4° C. The supernatant was aspirated and the pellet was resuspended in freezing buffer consisting of 10 mM HEPES pH 7.5, 300 mM sucrose, 1 μg/ml each aprotinin, leupeptin, and chymostatin, and 10 μg/ml PMSF (approximately 0.1 ml per each 10^8 cells). All clumps were resolved using a minihomogenizer, and the total protein concentration was determined using a protein assay kit (Bio-Rad, Hercules, Calif., cat #500-0002). The membrane solution was then aliquoted and frozen at −70 to −85° C. until needed.
Binding Assays utilized the membranes described above. […] The binding reactions were performed in 60 to 100 μl of a binding buffer consisting of 10 mM HEPES pH 7.2, 1 mM CaCl2, 5 mM MgCl2, and 0.5% BSA (bovine serum albumin), for 60 min at room temperature. The binding reactions were terminated by harvesting the membranes by rapid filtration through glass fiber filters (GF/B or GF/C, Packard) which were presoaked in 0.3% polyethyleneimine. The filters were rinsed with approximately 600 μl of binding buffer containing 0.5 M NaCl, dried, and the amount of bound radioactivity was determined by scintillation counting in a Topcount beta-plate counter.
Specific binding is defined as the total binding minus the non-specific binding; non-specific binding is the amount of cpm still detected in the presence of excess unlabeled Rantes or MIP-1α.

[1] = inhibitor concentration required for 50% inhibition of specific binding, 125I-RANTES or 125I-MIP-1α as ligand, THP-1 cell membranes, read-out: IC50

Compound: 4-(7-Chloroindol-3-yl)-1-[3-(5,11-dihydro-7-methoxy[1]benzoxepino[2,3-b]pyridin-5-ylidene)propyl]-1,2,3,6-tetrahydropyridine [Example 195]
- IC50 [1]: < 10 µM

Compound: COCCOc1ccc2c(c1)C(=CCCN1CCC(O)(c3ccc(Cl)cc3)CC1)c1cccnc1CO2 [Example 175]
- IC50 [1]: < 1 µM

Compound: 4-(4-Chlorophenyl)-1-[3-(5,11-dihydro-7-(1-ethoxycarbonyl-1-methylethyl)oxy[1]benzoxepino[2,3-b]pyridin-5-ylidene)propyl]piperidin-4-ol [Example 138]
- IC50 [1]: < 1 µM

Compound: CC(C)(O)c1ccc2c(c1)C(=CCCN1CCC(C)(c3ccccc3Cl)CC1)c1cccnc1CO2 [Example 521, 2-(5-{3-[4-(2-Chloro-phenyl)-4-methyl-piperidin-1-yl]-propylidene}-5,11-dihydro-10-oxa-1-aza-dibenzo[a,d]cyclohepten-7-yl)-propan-2-ol]
- IC50 [1]: < 1 µM

Compound: COC1(c2ccc(Cl)cc2)CCN(CCC=C2c3ccccc3COc3ccccc32)CC1 [Example 36, 4-(4-Chlorophenyl)-1-[3-(6,11-dihydrodibenz[b,e]oxepin-11-ylidene)propyl]-4-methoxypiperidine]
- IC50 [1]: < 1 µM

Compound: Methyl 1-[3-(5,11-dihydro-7-methoxy[1]benzoxepino[2,3-b]pyridin-5-ylidene)propyl]-4-phenylpiperidin-4-carboxylate [Example 188]
- IC50 [1]: > 10 µM

Compound: 1-[3-(5,11-Dihydro-7-methoxy[1]benzoxepino[2,3-b]pyridin-5-ylidene)propyl]-4-(2-furoyl)piperazine [Example 74]
- IC50 [1]: < 1000 µM

Compound: CC1(C)CN(CCC=C2c3cc(OCCO)ccc3OCc3ncccc32)CCC1(O)c1ccc(Cl)cc1 (centres unmarked) [Example 507, 4-(4-Chloro-phenyl)-1-{3-[7-(2-hydroxy-ethoxy)-11H-10-oxa-1-aza-dibenzo[a,d]cyclohepten-5-ylidene]-propyl}-3,3-dimethyl-piperidin-4-ol]
- IC50 [1]: < 1 µM

Compound: 1-(2-Chlorophenylsulfonyl)-4-[3-(5,11-Dihydro-7-methoxy[1]benzoxepino[2,3-b]pyridin-5-ylidene)propyl]piperazine [Example 190]
- IC50 [1]: > 10 µM

Compound: 1-[3-(5,11-Dihydro-7-methoxy[1]benzoxepino[2,3-b]pyridin-5-ylidene)propyl]-4-(2-pyridyl)piperidin-4-ol [Example 147]
- IC50 [1]: < 10 µM

Compound: CC(C)(O)c1ccc2c(c1)C(=CCCN1CCN(c3ccc(Cl)cc3)C(C#N)C1)c1cccnc1CO2 (centres unmarked) [Example 545, 1-(4-Chloro-phenyl)-4-{3-[7-(1-hydroxy-1-methyl-ethyl)-11H-10-oxa-1-aza-dibenzo[a,d]cyclohepten-5-ylidene]-propyl}-piperazine-2-carbonitrile]
- IC50 [1]: < 10 µM

Compound: COC(=O)c1ccc2c(c1)C(=CCCN1CCC(O)(c3ccc(Cl)cc3)CC1)c1ccccc1CO2 [Example 22, 4-(4-Chlorophenyl)-1-[3-(6,11-dihydro-2-methoxycarbonyldibenz[b,e]oxepin-11-ylidene)propyl]piperidin-4-ol]
- IC50 [1]: < 1 µM

Compound: CC1CN(CCC=C2c3cc(C(C)(C)O)ccc3OCc3ncccc32)CCN1c1ccc(Cl)cc1 (centres unmarked) [Example 519, 2-(5-{3-[4-(4-Chloro-phenyl)-3-methyl-piperazin-1-yl]-propylidene}-5,11-dihydro-10-oxa-1-aza-dibenzo[a,d]cyclohepten-7-yl)-propan-2-ol]
- IC50 [1]: < 1 µM

Compound: CCNC(=O)N(Cc1ccc(Cl)cc1)C1CCN(CCC=C2c3cc(C(C)(C)O)ccc3OCc3ncccc32)C1 (centres unmarked) [Example 569, 1-(4-Chloro-benzyl)-3-ethyl-1-(1-{3-[7-(1-hydroxy-1-methyl-ethyl)-11H-10-oxa-1-aza-dibenzo[a,d]cyclohepten-5-ylidene]-propyl}-pyrrolidin-3-yl)-urea]
- IC50 [1]: < 1 µM

Compound: 1-[3-(7-(2-Carboxy)ethenyl-5,11-dihydro[1]benzoxepino[2,3-b]pyridin-5-ylidene)propyl]-4-(4-chlorophenyl)piperidin-4-ol [Example 172]
- IC50 [1]: < 1 µM

Compound: COC1(c2ccc(Cl)cc2)CCN(CCC=C2c3cc(C(C)(C)O)ccc3OCc3ncccc32)CC1 [Example 494, 2-(5-{3-[4-(4-Chloro-phenyl)-4-methoxy-piperidin-1-yl]-propylidene}-5,11-dihydro-10-oxa-1-aza-dibenzo[a,d]cyclohepten-7-yl)-propan-2-ol]
- IC50 [1]: < 1 µM

Compound: 4-(4-Chlorophenyl)-1-[3-(5,11-dihydro-7-methylaminocarbonyl[1]benzoxepino[2,3-b]pyridin-5-ylidene)propyl]piperidin-4-ol [Example 268]
- IC50 [1]: < 1 µM

Compound: CC(C)(O)c1ccc2c(c1)C(=CCCN1CC[C@H](OCc3ccc(Cl)cc3)C1)c1cccnc1CO2 [Example 529, (S)-2-(5-{3-[3-(4-Chloro-benzyloxy)-pyrrolidin-1-yl]-propylidene}-5,11-dihydro-10-oxa-1-aza-dibenzo[a,d]cyclohepten-7-yl)-propan-2-ol]
- IC50 [1]: < 20 µM

Compound: Oc1ccc2c(c1)C(=CCCN1CC=C(c3ccc(Cl)cc3)CC1)c1cccnc1CO2 [Example 193]
- IC50 [1]: < 1 µM

Compound: 4-(4-Chlorophenyl)-1-[3-(5,11-dihydro-7-propoxy[1]benzoxepino[2,3-b]pyridin-5-ylidene)propyl]piperidin-4-ol [Example 128]
- IC50 [1]: < 1 µM

Compound: 4-(4-Chlorophenyl)-1-[3-(5,11-dihydro-7-methoxy[1]benzoxepino[2,3-b]pyridin-5-ylidene)propyl]piperidin-4-ol [Example 45]
- IC50 [1]: < 1 µM

Compound: CC(C)(O)c1ccc2c(c1)C(=CCCN1CCC(Nc3ccc(Cl)cc3)(C(N)=O)CC1)c1cccnc1CO2 [Example 466, 4-(4-Chloro-phenylamino)-1-{3-[7-(1-hydroxy-1-methyl-ethyl)-11H-10-oxa-1-aza-dibenzo[a,d]cyclohepten-5-ylidene]-propyl}-piperidine-4-carboxylic acid amide]
- IC50: < 50 µM

Compound: 4-(4-Chlorophenyl)-1-[3-(5,11-dihydro-7-methoxy[1]benzoxepino[2,3-b]pyridin-5-ylidene)propyl]-1,2,3,6-tetrahydropyridine [Example 194]
- IC50 [1]: < 1 µM

Compound: CN1C(=O)c2ccccc2C(=CCCN2CCC(O)(c3ccc(Cl)cc3)CC2)c2cccnc21 [Example 56, 4-(4-Chlorophenyl)-1-[3-(10,11-dihydro-11-methyl-10-oxo-5H-pyrido[2,3-c][2]benzazepin-5-ylidene)propyl]piperidin-4-ol]
- IC50 [1]: < 1 µM

Compound: CC(C)(O)c1ccc2c(c1)C(=CCCN1CCC(F)(c3ccc(Cl)cc3)CC1)c1cccnc1CO2 [Example 467, 2-(5-{3-[4-(4-Chloro-phenyl)-4-fluoro-piperidin-1-yl]-propylidene}-5,11-dihydro-10-oxa-1-aza-dibenzo[a,d]cyclohepten-7-yl)-propan-2-ol]
- IC50 [1]: < 1 µM

Compound: OC1(c2ccc(Cl)cc2)CCN(CCC=C2c3cc(OCc4nnn[nH]4)ccc3OCc3ncccc32)CC1 [Example 132]
- IC50 [1]: < 1 µM

Compound: CC1CN(CCC=C2c3cc(OCC(C)(C)O)ccc3OCc3ncccc32)CCC1(O)c1ccc(Cl)cc1 (centres unmarked) [Example 522, 4-(4-Chloro-phenyl)-1-{3-[7-(2-hydroxy-2-methyl-propoxy)-11H-10-oxa-1-aza-dibenzo[a,d]cyclohepten-5-ylidene]-propyl}-3-methyl-piperidin-4-ol]
- IC50 [1]: < 1 µM

Compound: COC1(c2ccc(Cl)cc2)CCN(CCC=C2c3cc(C(C)(C)O)ccc3OCc3ncccc32)CC1(C)O (centres unmarked) [Example 473, 4-(4-Chloro-phenyl)-1-{3-[7-(1-hydroxy-1-methyl-ethyl)-11H-10-oxa-1-aza-dibenzo[a,d]cyclohepten-5-ylidene]-propyl}-4-methoxy-3-methyl-piperidin-3-ol]
- IC50 [1]: < 1 µM

Compound: CC(C)(O)c1ccc2c(c1)C(=CCCN1CCC3(CC1)OC(=O)c1cc(Cl)ccc13)c1cccnc1CO2 [Example 472, 5-Chloro-1-{3-[7-(1-hydroxy-1-methyl-ethyl)-11H-10-oxa-1-aza-dibenzo[a,d]-cyclohepten-5-ylidene}-propyl]-spiro[3-oxo-1,3-dihydroisobenzofuran-1,4′-piperidine]]
- IC50 [1]: < 1 µM
